According to patent US4442090A, “Absorption-promoting compounds, compositions thereof with pharmaceuticals and/or bases for rectal administration and method of use” (Kyoto Yakuhin Kogyo Kabushiki Kaisha, priority 1980, dated 1984):

Columns and labels:
[1] = Urinary excretions of AB-PC after administration of AB-PC rectal suppository (human); assay type: in vivo; details: AB-PC 125 mg (potency); for Urinary excretions of AB-PC (%) (0-6 hr.): added compound 10%, Witepsol H-15, % of dose; for Urinary excretions (%) 0-2 (hr.) / Urinary excretions (%) 2-4 (hr.) / Urinary excretions (%) 4-6 (hr.) / Urinary excretions (%) Total (0-6 hr.): Compound (I) 10%, Witepsol H-15, Table 3
Method: The thus-obtained suppositories were administered to healthy adult male humans from the anus, and the urinary excretions of AB-PC were determined.

[2] = Urinary excretions of β-lactam antibiotics after rectal suppository (rabbit); assay type: in vivo; details: Compound (I) 5%, Witepsol H-15
Method: The absorption into the circulation through the rectum of the rectal suppositories thus prepared was determined by measuring urinary excretion of the pharmacologically-active substance.
Thus, Sarcina lutea and Bacillus subtilis were used as assay organisms for penicillins and cephalosporins, respectively, and the assays were performed by the paper disk method (cultivation at 37° C. for from 15 to 20 hours).

## CC(=O)O [Acetic acid Na, Acetic acid, reference compound]
[1]
  Urinary excretions of AB-PC (%) (0-6 hr.): 3.6%

## c1ccc2nc3ccccc3cc2c1 [Acridine, reference compound]
[1]
  Urinary excretions of AB-PC (%) (0-6 hr.): 2.1%

## c1ccc2occc2c1 [Benzofurane, reference compound]
[1]
  Urinary excretions of AB-PC (%) (0-6 hr.): 1.9%

## O=C(O)c1ccccc1 [Benzoic acid Na, Benzoic acid, reference compound]
[1]
  Urinary excretions of AB-PC (%) (0-6 hr.): 5.6%

## O=C(O)CCCCCCCCCC(=O)O [Compound 1-Na, 1,9-Nonamethylendicarboxylic acid]
[2]; Cephalothin 125 mg (potency)
  Urinary excretions (%) 0-2 hr.: 20.5%
  Urinary excretions (%) 2-4 hr.: 3.0%
  Urinary excretions (%) 4-6 hr.: 0.2%
  Urinary excretions (%) Total (0-6 hr.): 23.7%
[1]
  Urinary excretions of AB-PC (%) (0-6 hr.): 15.2%

## CCCCc1ccc(C(=O)O)cc1 [Compound 4-Na, p-Butylbenzoic acid]
[2]; Cefsulodin 125 mg (potency)
  Urinary excretions (%) 0-2 hr.: 30.5%
  Urinary excretions (%) 2-4 hr.: 15.0%
  Urinary excretions (%) 4-6 hr.: 1.1%
  Urinary excretions (%) Total (0-6 hr.): 45.6%
[1]
  Urinary excretions of AB-PC (%) (0-6 hr.): 28.6%

## CCCCCCOc1ccc(C(=O)O)cc1 [Compound 6-Na, p-Hexyloxybenzoic acid]
[2]; SCE-1365 125 mg (potency)
  Urinary excretions (%) 0-2 hr.: 45.0%
  Urinary excretions (%) 2-4 hr.: 18.2%
  Urinary excretions (%) 4-6 hr.: 1.8%
  Urinary excretions (%) Total (0-6 hr.): 65.0%
[1]
  Urinary excretions of AB-PC (%) (0-6 hr.): 21.2%

## O=C(O)CCCCCCCCCCCCC(=O)O [Compound 7-Na, 1,12-Dodecamethylene dicarboxylic acid]
[2]; 6059-S 125 mg (potency)
  Urinary excretions (%) 0-2 hr.: 42.2%
  Urinary excretions (%) 2-4 hr.: 8.8%
  Urinary excretions (%) 4-6 hr.: 1.0%
  Urinary excretions (%) Total (0-6 hr.): 52.0%
[1]
  Urinary excretions of AB-PC (%) (0-6 hr.): 22.6%

## O=C(O)COc1cccc2ccccc12 [Compound 8-Na, α-Napthoxacetic acid]
[1]
  Urinary excretions of AB-PC (%) (0-6 hr.): 15.1%

## CCCCCCCCCCCC(=O)N(C)CC(=O)O [Compound 10-Na, N--Lauroylsarcosine]
[2]; Sulbenicillin 125 mg (potency)
  Urinary excretions (%) 0-2 hr.: 33.5%
  Urinary excretions (%) 2-4 hr.: 10.0%
  Urinary excretions (%) 4-6 hr.: 1.0%
  Urinary excretions (%) Total (0-6 hr.): 43.5%

## CC1CCC(C(C)C)C(OCC(=O)O)C1 [Compound 11-Na, L-Menthoxyacetic acid]
[1]
  Urinary excretions of AB-PC (%) (0-6 hr.): 20.0%

## CCCCCCCCCCNC(=O)CCC(=O)O [Compound 12-Na, N--(n-Decyl)succinamic acid]
[2]; FK-749 125 mg (potency)
  Urinary excretions (%) 0-2 hr.: 40.1%
  Urinary excretions (%) 2-4 hr.: 18.0%
  Urinary excretions (%) 4-6 hr.: 2.0%
  Urinary excretions (%) Total (0-6 hr.): 60.1%

## CCCCCCCCCCNC(=O)/C=C\C(=O)O [Compound 13-Na, N--(n-Decyl)maleamic acid]
[2]; FK-749 125 mg (potency)
  Urinary excretions (%) 0-2 hr.: 39.1%
  Urinary excretions (%) 2-4 hr.: 18.0%
  Urinary excretions (%) 4-6 hr.: 2.1%
  Urinary excretions (%) Total (0-6 hr.): 59.2%

## CCCCCCCCNC(=O)c1ccccc1C(=O)O [Compound 14-Na, 2-Carboxy-N--(n-octyl)benzamide]
[2]; FK-749 125 mg (potency)
  Urinary excretions (%) 0-2 hr.: 41.2%
  Urinary excretions (%) 2-4 hr.: 19.0%
  Urinary excretions (%) 4-6 hr.: 1.8%
  Urinary excretions (%) Total (0-6 hr.): 62.0%

## CCCCN(CCCC)C(=O)CCC(=O)O [Compound 15-Na, N,N--Di-(n-butyl)succinamic acid]
[2]; Cefmetazole 125 mg (potency)
  Urinary excretions (%) 0-2 hr.: 44.0%
  Urinary excretions (%) 2-4 hr.: 20.0%
  Urinary excretions (%) 4-6 hr.: 1.0%
  Urinary excretions (%) Total (0-6 hr.): 65.9%

## CCCCCCCCCC(=O)NCCC(=O)O [Compound 16-Na, N--(n-Caprinoyl)-β-alanine]
[2]; Cefmetazole 125 mg (potency)
  Urinary excretions (%) 0-2 hr.: 43.1%
  Urinary excretions (%) 2-4 hr.: 19.9%
  Urinary excretions (%) 4-6 hr.: 2.9%
  Urinary excretions (%) Total (0-6 hr.): 69.1%

## CCCCCCCC(=O)Nc1ccc(C(=O)O)cc1 [Compound 17-Na, N--(n-Caprylyl)-4-aminobenzoic acid]
[2]; Cefmetazole 125 mg (potency)
  Urinary excretions (%) 0-2 hr.: 45.0%
  Urinary excretions (%) 2-4 hr.: 21.1%
  Urinary excretions (%) 4-6 hr.: 3.0%
  Urinary excretions (%) Total (0-6 hr.): 64.6%

## CCCCCCCC(=O)N(C)c1ccc(C(=O)O)cc1 [Compound 18-Na, N--(n-Caprylyl)-4-methylaminobenzoic acid]
[2]; 6059-S 125 mg (potency)
  Urinary excretions (%) 0-2 hr.: 42.2%
  Urinary excretions (%) 2-4 hr.: 18.8%
  Urinary excretions (%) 4-6 hr.: 3.6%
  Urinary excretions (%) Total (0-6 hr.): 64.6%

## O=C(N[C@@H](Cc1ccccc1)C(=O)O)c1ccccc1O [Compound 19-Na, N--(2-Hydroxybenzoyl)phenylalanine]
[2]; 6059-S 125 mg (potency)
  Urinary excretions (%) 0-2 hr.: 38.0%
  Urinary excretions (%) 2-4 hr.: 20.0%
  Urinary excretions (%) 4-6 hr.: 3.1%
  Urinary excretions (%) Total (0-6 hr.): 61.1%

## CCCCOc1ccc(C(=O)N[C@@H](Cc2ccccc2)C(=O)O)cc1 [Compound 20-Na, N--(4-Butoxybenzoyl)phenylalanine]
[2]; 6059-S 125 mg (potency)
  Urinary excretions (%) 0-2 hr.: 46.0%
  Urinary excretions (%) 2-4 hr.: 15.2%
  Urinary excretions (%) 4-6 hr.: 4.1%
  Urinary excretions (%) Total (0-6 hr.): 65.3%

## CCCCCC(=O)N[C@@H](Cc1ccccc1)C(=O)O [Compound 21-Na, N--Caproyl-L-phenylalanine]
[1]
  Urinary excretions (%) 0-2 (hr.): 16.8%
  Urinary excretions (%) 2-4 (hr.): 2.0%
  Urinary excretions (%) 4-6 (hr.): 1.1%
  Urinary excretions (%) Total (0-6 hr.): 19.9%

## CCCCCC(=O)N[C@@H](Cc1c[nH]c2ccccc12)C(=O)O [Compound 22-Na, N--Caproyl-L-tryptophan]
[2]; Cefazolin 125 mg (potency)
  Urinary excretions (%) 0-2 hr.: 40.5%
  Urinary excretions (%) 2-4 hr.: 16.0%
  Urinary excretions (%) 4-6 hr.: 2.0%
  Urinary excretions (%) Total (0-6 hr.): 58.5%
[2]; Cephalothin 125 mg (potency)
  Urinary excretions (%) 0-2 hr.: 19.5%
  Urinary excretions (%) 2-4 hr.: 2.5%
  Urinary excretions (%) 4-6 hr.: 0.2%
  Urinary excretions (%) Total (0-6 hr.): 22.2%

## CCCCCCCCCC(=O)N[C@H](C(=O)O)C(C)C [Compound 24-Na, N--Caprinoyl-L-valine]
[2]; Cefotaxime 125 mg (potency)
  Urinary excretions (%) 0-2 hr.: 31.5%
  Urinary excretions (%) 2-4 hr.: 10.0%
  Urinary excretions (%) 4-6 hr.: 0.8%
  Urinary excretions (%) Total (0-6 hr.): 42.3%
[2]; FK-749 125 mg (potency)
  Urinary excretions (%) 0-2 hr.: 45.0%
  Urinary excretions (%) 2-4 hr.: 5.6%
  Urinary excretions (%) 4-6 hr.: 2.5%
  Urinary excretions (%) Total (0-6 hr.): 53.1%
[1]
  Urinary excretions (%) 0-2 (hr.): 18.0%
  Urinary excretions (%) 2-4 (hr.): 5.1%
  Urinary excretions (%) 4-6 (hr.): 1.0%
  Urinary excretions (%) Total (0-6 hr.): 23.1%

## CCCCCCCCCCCC(=O)N[C@H](C(=O)O)C(C)C [Compound 25-Na, N--Lauroyl-L-valine]
[2]; Cefmetazole 125 mg (potency)
  Urinary excretions (%) 0-2 hr.: 45.0%
  Urinary excretions (%) 2-4 hr.: 10.0%
  Urinary excretions (%) 4-6 hr.: 2.0%
  Urinary excretions (%) Total (0-6 hr.): 57.0%

## CCCCCCCCCCCCCC(=O)N[C@H](C(=O)O)[C@@H](C)O [Compound 26-Na, N--Myristoyl-L-threonine]
[2]; Cefsulodin 125 mg (potency)
  Urinary excretions (%) 0-2 hr.: 41.1%
  Urinary excretions (%) 2-4 hr.: 8.2%
  Urinary excretions (%) 4-6 hr.: 0.5%
  Urinary excretions (%) Total (0-6 hr.): 49.8%
[2]; Sulbenicillin 125 mg (potency)
  Urinary excretions (%) 0-2 hr.: 40.0%
  Urinary excretions (%) 2-4 hr.: 5.1%
  Urinary excretions (%) 4-6 hr.: 1.0%
  Urinary excretions (%) Total (0-6 hr.): 46.2%
[1]
  Urinary excretions (%) 0-2 (hr.): 26.1%
  Urinary excretions (%) 2-4 (hr.): 3.0%
  Urinary excretions (%) 4-6 (hr.): 0.9%
  Urinary excretions (%) Total (0-6 hr.): 30.0%

## CCCCCCCCCCCCCCCC(=O)N[C@@H](CC(=O)O)C(=O)O [Compound 27-Na, N--Palmitoyl-L-aspartic acid]
[2]; Cefotiam 125 mg (potency)
  Urinary excretions (%) 0-2 hr.: 35.2%
  Urinary excretions (%) 2-4 hr.: 6.2%
  Urinary excretions (%) 4-6 hr.: 0.5%
  Urinary excretions (%) Total (0-6 hr.): 41.9%
[1]
  Urinary excretions (%) 0-2 (hr.): 22.0%
  Urinary excretions (%) 2-4 (hr.): 4.1%
  Urinary excretions (%) 4-6 (hr.): 0.7%
  Urinary excretions (%) Total (0-6 hr.): 26.8%

## CCCCCCCCCC(=O)OCC [Ethyl caprate, reference compound]
[1]
  Urinary excretions of AB-PC (%) (0-6 hr.): 3.0%

## CCCCCCCC(=O)OCC [Ethyl caprylate, reference compound]
[1]
  Urinary excretions of AB-PC (%) (0-6 hr.): 2.9%

## CC(=O)NCC(=O)[O-].[Na+] [N--Acetylglycine Na, N--Acetylglycine, reference compound]
[1]
  Urinary excretions of AB-PC (%) (0-6 hr.): 2.5%

## Nc1ccc(C(=O)O)cc1 [P--Aminobenzoic acid Na, P--Aminobenzoic acid, reference compound]
[1]
  Urinary excretions of AB-PC (%) (0-6 hr.): 4.9%

## O=C(O)Cc1ccccc1 [Phenylacetic acid Na, Phenylacetic acid, reference compound]
[1]
  Urinary excretions of AB-PC (%) (0-6 hr.): 5.8%

## O=C(O)CCCCCC(=O)O [Pimelic acid Na, Pimelic acid, reference compound]
[1]
  Urinary excretions of AB-PC (%) (0-6 hr.): 6.0%

## O=C(O)c1ccccc1O [Salicylic acid Na, Salicylic acid, reference compound]
[1]
  Urinary excretions of AB-PC (%) (0-6 hr.): 9.6%
